{
  "source": "patent US9345681B2",
  "about": "“Anti-obesity agent comprising high-purity EPA” (MOCHIDA PHARMACEUTICAL CO., LTD., priority 2011, dated 2016)",
  "key": {"plasma LDL-C": {"system": "plasma LDL-C", "assay": "Effects on LDL-C level in high fat diet hamster", "format": "in vivo, Syrian hamsters", "conditions": "high fat diet + 2% test substance, 21st day of the administration (FIG. 3)", "experimental": "(§1) 6 week old male Syrian hamsters (Japan SLC, Inc.) were bred at a temperature of 23±3° C. and a light-dark cycle of 12 hours on a free feeding of standard diet for 11 days, and the hamsters were divided into 4 groups, namely, standard forage group (Standard) (n=4), high-fat diet group (n=8), EPA group (HF+EPA-E) (n=8), and DHA group (HF+DHA-E) (n=7). The standard diet used was CLEA Rodent Diet CE-2 (4.8% fat) manufactured by CLEA Japan, Inc. and the high fat diet (HF) used was Hypercholesterolemic Hamster Diet (9% sugar and fat 21% fat) manufactured by Wilson. The action of the EPA and the DHA on the LDL-C level was confirmed by using the hamsters fed on a high fat diet. Along with the experiment of the action of suppressing the body weight gain in Experimental Example 1, blood was collected at day 7, 14, and 21 after the starting of the administration, and plasma was separated by centrifugation. Plasma LDL-C concentration was measured by using a commercially available test reagent (Wako L-Type LDL-C manufactured by Wako Pure Chemical Industries)."}, "CETP": {"system": "CETP", "assay": "Effects on CETP activity value in high fat diet hamster", "format": "in vivo, Syrian hamsters", "conditions": "high fat diet + 2% test substance, 21st day of the administration (FIG. 4)", "experimental": "as §1, with “CETP activity value” for “LDL-C level”, “CETP activity value” for “LDL-C concentration”, “a” for “a commercially available”, “(CETP activity assay kit” for “(Wako L-Type LDL-C”, “Bio Vision).” for “Wako Pure Chemical Industries).”"}, "[1]": {"system": "model mouse with obesity not associated with the enhancement of hepatic lipogenesis or fatty liver", "conditions": "model mouse continuously fed on a high-fat diet; cited from earlier work"}, "[2]": {"system": "obesity model hamster fed on a high fat diet", "assay": "Effect of suppressing the body weight gain in the obesity model hamster fed on a high fat diet", "format": "in vivo, Syrian hamsters", "conditions": "for body weight gain rate on the 21st day: mixed diet of high fat diet + 2% test substance, compared with high-fat diet group (FIG. 1)", "experimental": "6 week old male Syrian hamsters (Japan SLC, Inc.) were bred at a temperature of 23±3° C. and a light-dark cycle of 12 hours on a free feeding of standard diet for 11 days, and the hamsters were divided into 4 groups, namely, standard forage group (Standard) (n=4), high-fat diet group (n=8), EPA group (HF+EPA-E) (n=8), and DHA group (HF+DHA-E) (n=7). The standard diet used was CLEA Rodent Diet CE-2 (4.8% fat) manufactured by CLEA Japan, Inc. and the high fat diet (HF) used was Hypercholesterolemic Hamster Diet (9% sugar and fat 21% fat) manufactured by Wilson. The effects of the EPA and DHA on the body weight gain were confirmed by using hamsters fed on a high fat diet (HF). During the feeding on the high fat diet, a mixed diet of high fat diet+2% EPA-E (comprising 98.24% EPA-E manufactured by Nippon Suisan Kaisha, Ltd.) was given to the EPA group, and a mixed diet of high fat diet+2% DHA-E (comprising 97.4% DHA-E manufactured by Equateq Ltd.) was given to the DHA group (with the diet changed once a day in the morning). The control group was given a high fat diet or a standard diet (comprising 4.8% fat) (with the diet changed once a day in the morning). The body weight was measured from the day of the start of the administration. The body weight gain rate on the 21st day was higher in the group fed on the high-fat diet group compared to the standard forage group, and the group fed on the high-fat diet was in the condition of obesity. […] This confirms that the action of suppressing the body weight gain (or reducing the body weight) of the EPA-E is realized by the action of suppressing (or reducing) the amount of fat, namely, the anti-obesity action."}, "[3]": {"system": "model mouse with obesity associated with enhanced hepatic lipogenesis or fatty liver", "conditions": "model mouse continuously fed on a high-fat and high-sugar diet; cited from earlier work"}},
  "data": [
    {"smiles": "CC/C=C\\C/C=C\\C/C=C\\C/C=C\\C/C=C\\CCCC(=O)OCC", "note": "[EPA-E, ethyl icosapentate]", "values": [
      {"measurement": "plasma LDL-C level", "setting": "plasma LDL-C", "value": "an action of suppressing the increase of the plasma LDL-C level was found"},
      {"measurement": "plasma CETP activity value", "setting": "CETP", "value": "the action of suppressing the increase of the CETP activity was confirmed"},
      {"measurement": "suppression of body weight gain", "setting": "[1]", "value": "ineffective"},
      {"measurement": "amount of fat in the epididymis on the 21st day", "setting": "[2]; high fat diet + 2% test substance, 21st day (FIG. 2)", "value": "increase in the amount of fat was significantly suppressed"},
      {"measurement": "body weight gain rate on the 21st day", "setting": "[2]", "value": "lower than the control high-fat diet group"},
      {"measurement": "suppression of body weight gain", "setting": "[3]", "value": "effective in suppressing the body weight gain"}
    ]},
    {"smiles": "CC/C=C\\C/C=C\\C/C=C\\C/C=C\\C/C=C\\C/C=C\\CCC(=O)OCC", "note": "[DHA-E, ethyl docosahexaenoate]", "values": [
      {"measurement": "plasma LDL-C level", "setting": "plasma LDL-C", "value": "An action of increasing the plasma LDL-C level was found"},
      {"measurement": "plasma CETP activity value", "setting": "CETP", "value": "increase in the CETP activity was confirmed"},
      {"measurement": "body weight gain rate on the 21st day", "setting": "[2]", "value": "approximately equal to that of the high-fat diet group"}
    ]}
  ]
}
